Results from patent US12492173B2, “Herbicidal substituted N-tetrazolyl aryl carboxamides” (Bayer Aktiengesellschaft, priority 2019, dated 2025).

Columns and labels:
Format in all cases: in vivo
[1] = system: Matricaria inodora; experiment: Post-emergence herbicidal action, MATIN; design: key: % herbicidal action vs untreated; 100 = plants died, 0 = like control; conditions: for Herbicidal action against MATIN: comparative experiment
How it was run: (§1)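 Values are visual estimates of herbicidal action, from 0% (as untreated) to 100% (dead), made about 3 weeks after plants at one-leaf stage in sandy loam were sprayed with the formulated compound.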

[2] = system: Pharbitis purpurea; experiment: Pre-emergence herbicidal action, PHBPU; conditions: for herbicidal activity PHBPU: scored visually after 3 weeks vs untreated controls (100% = plants have died)
How it was run: (§2)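 Pre-emergence soil spray over sandy loam-covered seeds; greenhouse 3 weeks; % visual damage (0% = control, 100% = dead).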

[3] = system: Veronica persica; experiment: Pre-emergence herbicidal action, VERPE; design: key to Herbicidal action against VERPE: % activity: 100 = plants have died, 0 = like control plants; conditions: for herbicidal activity VERPE: scored visually after 3 weeks vs untreated controls (100% = plants have died)
How it was run: as §2

[4] = system: Alopecurus myosuroides; experiment: Post-emergence herbicidal action, ALOMY; design: key: % herbicidal action vs untreated; 100 = plants died, 0 = like control
How it was run: as §1

[5] = system: Echinochloa crus-galli; experiment: Pre-emergence herbicidal action, ECHCG; design: key to Herbicidal action against ECHCG: % activity: 100 = plants have died, 0 = like control plants; conditions: for herbicidal activity ECHCG: scored visually after 3 weeks vs untreated controls (100% = plants have died); for Herbicidal action against ECHCG: comparative experiment
How it was run: as §2

[6] = system: Setaria viridis; experiment: Pre-emergence herbicidal action, SETVI; design: key to Herbicidal action against SETVI: % activity: 100 = plants have died, 0 = like control plants; conditions: for herbicidal activity SETVI: scored visually after 3 weeks vs untreated controls (100% = plants have died); for Herbicidal action against SETVI: comparative experiment
How it was run: as §2

[7] = comparative experiment, 20 g of a.i./ha

Structure (SMILES) | herbicidal action MATIN ([1]; post-emergence, dosage 80 g/ha) [%] | herbicidal activity PHBPU ([2]; dosage 320 g/ha) [%] | herbicidal activity VERPE ([3]; dosage 320 g/ha) [%] | herbicidal action ALOMY ([4]; post-emergence, dosage 80 g/ha) [%] | herbicidal activity ECHCG ([5]; dosage 320 g/ha) [%] | herbicidal activity SETVI ([6]; dosage 320 g/ha) [%] | other results
CC[S+]([O-])Cc1c(C(F)(F)F)ccc(C(=O)Nc2nnnn2C)c1Cl (racemic) [Example 1-300] | 100 | 100 | 100 | 90 | 100 | 100 | 
Cn1nnnc1NC(=O)c1ccc(C(F)(F)F)c(C[S+]([O-])C2CC2)c1Cl (racemic) [Example 1-303] | 100 | 100 | 100 | 100 | 100 | 100 | 
COCC[S+]([O-])Cc1c(C(F)(F)F)ccc(C(=O)Nc2nnnn2C)c1Cl (racemic) [Example 1-306] |  | 90 | 90 |  | 100 | 90 | herbicidal action MATIN ([1]; Dosage 80 g/ha): 90; herbicidal action ALOMY ([4]; Dosage 80 g/ha): 90
Cn1nnnc1NC(=O)c1ccc(C(F)(F)F)c(C[S+]([O-])CC(F)(F)F)c1Cl (racemic) [Example 1-312] | 100 | 90 | 100 | 90 | 100 | 100 | 
Cn1nnnc1NC(=O)c1ccc(I)c(C[S+](C)[O-])c1Cl (racemic) [Example 1-363] | 100 | 100 | 100 | 90 | 100 | 100 | Herbicidal action against SETVI ([6]; 20 g of a.i./ha): 90
CC[S+]([O-])Cc1c(C(F)(F)F)ccc(C(=O)Nc2nnnn2C)c1Br (racemic) [Example 1-384] | 90 | 90 | 100 | 90 | 100 | 100 | Herbicidal action against MATIN ([1]; post-emergence, 20 g of a.i./ha): 90; Herbicidal action against ECHCG ([5]; 80 g of a.i./ha): 100; Herbicidal action against SETVI ([6]; 80 g of a.i./ha): 100
CSCc1c(C(F)(F)F)ccc(C(=O)Nc2nnnn2C)c1C [Example 1-83] | 100 | 80 | 100 | 80 | 100 | 100 | 
CCS(=O)(=O)Cc1c(C(F)(F)F)ccc(C(=O)Nc2nnnn2C)c1C [Example 1-88] |  |  |  |  |  |  | herbicidal action MATIN ([1]; Dosage 80 g/ha): 90; herbicidal action PHBPU ([2]; dosage 320 g/ha): 90%; herbicidal action VERPE ([3]; dosage 320 g/ha): 100%; herbicidal action ALOMY ([4]; Dosage 80 g/ha): 80; herbicidal action ECHCG ([5]; dosage 320 g/ha): 100%; herbicidal action SETVI ([6]; dosage 320 g/ha): 100%
CSc1c(C(=O)Nc2nnnn2C)ccc(C(F)(F)F)c1C[S+](C)[O-] (stereo not shown) [Example 1-162] | 100 | 90 | 90 | 100 | 100 | 100 | Herbicidal action against PHBPU [2, 7]: 60; Herbicidal action against ECHCG ([5]; 20 g of a.i./ha): 90
CSc1c(C(=O)Nc2nnnn2C)ccc(C(F)F)c1C[S+](C)[O-] (stereo not shown) [Example 1-171] |  | 90 | 100 |  | 100 | 100 | herbicidal action MATIN ([1]; Dosage 80 g/ha): 90; herbicidal action ALOMY ([4]; Dosage 80 g/ha): 80
CCSCc1c(C(F)(F)F)ccc(C(=O)Nc2nnnn2C)c1Cl [Example 1-299] | 90 | 90 | 100 | 90 | 100 | 100 | Herbicidal action against MATIN ([1]; post-emergence, 5 g of a.i./ha): 80; Herbicidal action against VERPE [3, 7]: 100; Herbicidal action against ALOMY ([4]; comparative experiment, post-emergence, 5 g of a.i./ha): 70; Herbicidal action against SETVI ([6]; 20 g of a.i./ha): 90
Cn1nnnc1NC(=O)c1ccc(C(F)(F)F)c(CSC2CC2)c1Cl [Example 1-302] | 90 | 100 | 100 | 100 | 100 | 100 | 
Cn1nnnc1NC(=O)c1ccc(C(F)(F)F)c(CS(=O)(=O)C2CC2)c1Cl [Example 1-304] | 90 | 100 | 100 | 100 | 100 | 100 | 
